Key:
[1] = total clearance after intravenous administration to PXB-mice; type: in vivo, PXB‐mice (chimeric mice with humanized livers); settings: intravenous cassette dose 0.1 mg/kg, N = 3, noncompartmental analysis
[2] = ref Table S1; cited from earlier work
[3] = fraction unbound in plasma, equilibrium dialysis; type: in vitro ADME, humans; settings: fraction unbound in human plasma
[4] = prediction of CLt,human by multispecies allometric scaling, rule of exponent
[5] = humans; ref Table S1; cited from earlier work
[6] = fraction unbound in plasma, equilibrium dialysis; type: in vitro ADME, Sprague–Dawley rat; settings: fraction unbound in rat plasma
[7] = total clearance after intravenous administration to rats; type: in vivo, Sprague–Dawley rats; settings: intravenous cassette dose 0.1 mg/kg, N = 3
[8] = prediction of CLt,human by single-species allometric scaling from PXB-mice; design: species or system humans
[9] = prediction of CLt,human by in vitro–in vivo extrapolation; design: species or system humans
[10] = ref Table S1; cited from earlier work; remark: listed apart in the source
[11] = prediction of CLt,human by physiologically based scaling using PXB-mice; design: species or system humans

## CCNC(=O)OC1CCN(c2nncc3cc(OC)c(OC)cc23)CC1 [Carbazeran]
[1]
  CLt, PXB‐mice: 99.67 mL/min/kg
[2]
  CLt, Dogs: 11.5 mL/min/kg
[3]
  f u,p, Humans: 0.148
[4]; from CLt in rats, monkeys and dogs
  Predicted CLt,human, ROE: 8.6 mL/min/kg
[4]; predicted/observed CLt,human
  Fold error (predicted/observed), ROE: 0.23
[5]
  Observed CLt,human: 37.6 mL/min/kg
From CLt in rats, monkeys and dogs and fu,p ratio rat/human
  Predicted CLt,human, FCIM: 7.6 mL/min/kg
predicted/observed CLt,human
  Fold error (predicted/observed), FCIM: 0.20
[6]
  f u,p, Rats: 0.169
[7]
  CLt, Rats: 42.22 mL/min/kg
[8]; predicted/observed CLt,human
  Fold error (predicted/observed), PXB‐SSS: 0.34
[8]; scaled from CLt in PXB-mice, exponent 0.75
  Predicted CLt,human, PXB‐SSS: 12.8 mL/min/kg
[9]; from in vitro CLint per human hepatocyte, dispersion model
  Predicted CLt,human, IVIVE: 15.5 mL/min/kg
[9]; predicted/observed CLt,human
  Fold error (predicted/observed), IVIVE: 0.41
[10]
  CLt, Monkeys: 87.87 mL/min/kg
[11]; from CLt in PXB-mice, dispersion model, CLint per hepatocyte assumed equal
  Predicted CLt,human, PXB‐PBS: 16.4 mL/min/kg
[11]; predicted/observed CLt,human
  Fold error (predicted/observed), PXB‐PBS: 0.44
